Literature values, collected in US9561272B2, “Compositions and methods for modulating immune responses” (The University of Queensland, priority 2006, dated 2017).

B1: Secretory leukoprotease inhibitor (SLPI) (protein, UniProt P03973 26-132, looked up)
Antileukoproteinase: SGKSFKAGVCPPKKSAQCLRYKKPECQSDWQCPGKKRCCPDTCGIKCLDPVDTPNPTRRKPGKCPVTYGQCLMLNPPNFCEMDGQCKRDLKCCMGMCGKSCVSPVKA
B2: PIAS3 (protein, UniProt Q9Y6X2 1-628, looked up)
E3 SUMO-protein ligase PIAS3: MAELGELKHMVMSFRVSELQVLLGFAGRNKSGRKHELLAKALHLLKSSCAPSVQMKIKELYRRRFPRKTLGPSDLSLLSLPPGTSPVGSPGPLAPIPPTLLAPGTLLGPKREVDMHPPLPQPVHPDVTMKPLPFYEVYGELIRPTTLASTSSQRFEEAHFTFALTPQQVQQILTSREVLPGAKCDYTIQVQLRFCLCETSCPQEDYFPPNLFVKVNGKLCPLPGYLPPTKNGAEPKRPSRPINITPLARLSATVPNTIVVNWSSEFGRNYSLSVYLVRQLTAGTLLQKLRAKGIRNPDHSRALIKEKLTADPDSEVATTSLRVSLMCPLGKMRLTVPCRALTCAHLQSFDAALYLQMNEKKPTWTCPVCDKKAPYESLIIDGLFMEILSSCSDCDEIQFMEDGSWCPMKPKKEASEVCPPPGYGLDGLQYSPVQGGDPSENKKKVEVIDLTIESSSDEEDLPPTKKHCSVTSAAIPALPGSKGVLTSGHQPSSVLRSPAMGTLGGDFLSSLPLHEYPPAFPLGADIQGLDLFSFLQTESQHYGPSVITSLDEQDALGHFFQYRGTPSHFLGPLAPTLGSSHCSATPAPPPGRVSSIVAPGGALREGHGGPLPSGPSLTGCRSDIISLD
B3: SIRT1 Deacetylase overexpression (protein, UniProt Q96EB6 2-747, looked up)
NAD-dependent protein …: ADEAALALQPGGSPSAAGADREAASSPAGEPLRKRPRRDGPGLERSPGEPGGAAPEREVPAAARGCPGAAAAALWREAEAEAAAAGGEQEAQATAAAGEGDNGPGLQGPSREPPLADNLYDEDDDDEGEEEEEAAAAAIGYRDNLLFGDEIITNGFHSCESDEEDRASHASSSDWTPRPRIGPYTFVQQHLMIGTDPRTILKDLLPETIPPPELDDMTLWQIVINILSEPPKRKKRKDINTIEDAVKLLQECKKIIVLTGAGVSVSCGIPDFRSRDGIYARLAVDFPDLPDPQAMFDIEYFRKDPRPFFKFAKEIYPGQFQPSLCHKFIALSDKEGKLLRNYTQNIDTLEQVAGIQRIIQCHGSFATASCLICKYKVDCEAVRGDIFNQVVPRCPRCPADEPLAIMKPEIVFFGENLPEQFHRAMKYDKDEVDLLIVIGSSLKVRPVALIPSSIPHEVPQILINREPLPHLHFDVELLGDCDVIINELCHRLGGEYAKLCCNPVKLSEITEKPPRTQKELAYLSELPPTPLHVSEDSSSPERTSPPDSSVIVTLLDQAAKSNDDLDVSESKGCMEEKPQEVQTSRNVESIAEQMENPDLKNVGSSTGEKNERTSVAGTVRKCWPNRVAKEQISRRLDGNQYLFLPPNRYIFHGAEVYSDSEDDVLSSSSCGSNSDSGTCQSPSLEEPMEDESEIEEFYNGLEDEPDVPERAGGAGFGTDGDDQEAINEAISVKQEVTDMNYPSNKS
B4: Siah2 (protein, UniProt O43255 1-324, looked up)
E3 ubiquitin-protein ligase …: MSRPSSTGPSANKPCSKQPPPQPQHTPSPAAPPAAATISAAGPGSSAVPAAAAVISGPGGGGGAGPVSPQHHELTSLFECPVCFDYVLPPILQCQAGHLVCNQCRQKLSCCPTCRGALTPSIRNLAMEKVASAVLFPCKYATTGCSLTLHHTEKPEHEDICEYRPYSCPCPGASCKWQGSLEAVMSHLMHAHKSITTLQGEDIVFLATDINLPGAVDWVMMQSCFGHHFMLVLEKQEKYEGHQQFFAIVLLIGTRKQAENFAYRLELNGNRRRLTWEATPRSIHDGVAAAIMNSDCLVFDTAIAHLFADNGNLGINVTISTCCP

System: NF-κB
Settings: Table 3, miscellaneous inhibitors of NF-κB; step of NF-κB function inhibited, per the cited reference; cited from earlier work

Row | Molecule | Effect or point of inhibition
1 | COc1cc([C@@H]2c3cc4c(c(OC)c3[C@H](O)[C@H]3COC(=O)[C@H]23)OCO4)cc(OC)c1O | Transactivation
2 | C[n+]1c2n(c(=O)c3ccccc31)CCc1c-2[nH]c2ccccc12 [Dehydroevodiamine] | Transactivation
3 | c1cc2c(cc1[C@H]1OC[C@H]3[C@@H]1CO[C@@H]3c1ccc3c(c1)OCO3)OCO2 [Sesamin (from sesame oil)] | DNA binding
4 | OC[C@@H](O)[C@H](O)[C@@H](O)CO [Xylitol] | DNA binding
5 | CC(C)[C@]12O[C@H]1[C@@H]1O[C@]13[C@]1(O[C@H]1C[C@H]1C4=C(CC[C@@]13C)C(=O)OC4)[C@@H]2O | DNA binding
6 | CCCCC/C=C\C/C=C\CCCCCCCC(=O)OCC(COC(=O)CCCCCCC/C=C\C/C=C\CCCCC)OC(=O)CCCCCCC/C=C\C/C=C\CCCCC [Trilinolein] | Transactivation
7 | CC1(C)C[C@@H]1C(=O)Nc1ccc(Oc2ccc(NC(=O)[C@H]3CC3(C)C)cn2)cc1 [APC0576] | Transactivation
8 | O=C(Nc1ncc([N+](=O)[O-])s1)c1ccc([N+](=O)[O-])c(Cl)c1 [SM-7368 (small molecule)] | DNA binding
9 | Cc1nc(C)c(C)nc1C [Tetramethylpyrazine] | DNA binding
10 | CS(=O)(=O)Nc1cc2occ(NC=O)c(=O)c2cc1Oc1ccccc1 | DNA binding
11 | COc1ccc(C=CC(=O)Nc2ccccc2C(=O)O)cc1OC | Transactivation
12 | COC[C@H]1OC(=O)c2coc3c2[C@@]1(C)C1=C(C3=O)[C@@H]2CCC(=O)[C@@]2(C)C[C@H]1OC(C)=O [Wortmannin (fungal metabolite)] | Transactivation
13 | Cn1cc(C2=C(c3cn(CCCSC(=N)N)c4ccccc34)C(=O)NC2=O)c2ccccc21 [RO31-8220 (PKC inhibitor)] | Transactivation
14 | CCCCCCCCCCCCC/C=C/[C@@H](O)[C@@H](N)CO[C@@H]1O[C@H](CO)[C@H](O)[C@H](O)[C@H]1O [Psychosine] | Transactivation
15 | C[C@H]1[C@H](C)CC[C@]2(C(=O)O)CC[C@]3(C)C(=CC[C@@H]4[C@@]5(C)CC[C@H](O)C(C)(C)[C@@H]5CC[C@]43C)[C@H]12 [Ursolic acid] | DNA binding
16 | CC1=C(CO)C(=O)O[C@@H]([C@@H](C)[C@H]2CC[C@H]3[C@@H]4C[C@H]5O[C@]56[C@@H](O)C=CC(=O)[C@]6(C)[C@H]4CC[C@]23C)C1 [Withaferin A] | DNA binding
17 | S=C=NCCc1ccccc1 [Phenethylisothiocyanate] | Transactivation
18 | CC(=O)OC(CC=C(C)C)C(C)=CC(O)CC(C)=CCOc1ccc2ccc(=O)oc2c1 (centres unmarked) | Transactivation
19 | C[C@H]1CCC[C@H](O)CCC/C=C/c2cc(O)cc(O)c2C(=O)O1 [Alpha-zearalenol] | Transactivation
20 | Artemisolide | Transactivation
21 | [SH-].[SH-].[S]=[Mo]=[S] [Tetrathiomolybdate] | Transactivation
22 | CC(/C=C/C(=O)NO)=C\[C@@H](C)C(=O)c1ccc(N(C)C)cc1 [Trichostatin A] | RelA DNA binding

Row | Molecule | Effect or point of inhibition
23 | O=C1NC(=O)C(Cc2ccc3cc(OCc4ccccc4F)ccc3c2)S1 (centres unmarked) [Thiazolidinedione MCC-555] | DNA binding
24 | Siva-1 | DNA binding
25 | COc1cc(/C=C/C(=O)c2ccc(F)cc2)cc(OC)c1OC [3,4,5-trimethoxy-4′-fluorochalcone] | Transactivation
26 | COc1ccc(-c2cc(=O)c3c(OC)c(OC)c(OC)c(OC)c3o2)cc1OC [Nobiletin] | Transactivation
27 | CCOC(=O)c1cnc(NC2=C(C)C(=O)NC2=O)nc1C(F)(F)F | Transactivation
28 | S=C([S-])OC1CC2CC1C1CCCC21.[K+] (centres unmarked) | Transactivation
29 | O=C(C=Cc1ccc(O)cc1)NCCc1c[nH]c2ccc(O)cc12 | DNA binding
30 | O=c1cc(N2CCOCC2)oc2c(-c3ccccc3)cccc12 [LY294,002] | Transactivation
31 | COc1c(O)cc(O)c2c(=O)cc(-c3ccccc3)oc12 [Wogonin (5,7-dihydroxy-8-methoxyflavone)] | DNA binding
32 | N[C@@H](Cc1c[nH]cn1)C(=O)O [Histidine] | Transactivation
33 | C=CCNC1=C2C[C@@H](C)C[C@H](OC)[C@H](O)[C@@H](C)/C=C(\C)[C@H](OC(N)=O)[C@@H](OC)/C=C\C=C(/C)C(=O)NC(=CC1=O)C2=O [17-allylamino-17-demethoxygeldanamycin] | Transactivation
34 | N#CC(C#N)=Cc1ccc([N+](=O)[O-])c(O)c1 [Tyrphostin AG-126] | DNA binding
35 | COc1cc(O)c(CC=C(C)C)c(O)c1C(=O)/C=C/c1ccc(O)cc1 [Xanthohumol (a hops prenylflavonoid)] | DNA binding
36 | COc1ccc(C(C)=O)c(O)c1 [Paeonol (from Mountain Cortx)] | Transactivation
37 | Tom1 (target of Myb-1) overexpression | DNA binding
38 | O=c1cc(-c2ccc(O)c(O)c2)oc2cc(O)cc(O)c12 [Luteolin] | p65 Transactivation
39 | O=C(O)c1cc(/N=N/c2ccc(S(=O)(=O)Nc3ccccn3)cc2)ccc1O [Sulfasalazine] | DNA binding
40 | COC1=C[C@@H]2[C@@H]3Cc4ccc(OC)c(O)c4[C@]2(CCN3C)CC1=O [Sinomenine] | DNA binding
41 | B1 | DNA binding
42 | B2 | Transactivation
43 | B3 | DNA binding
44 | B4 | DNA binding

Same assay, conditions: cited from earlier work

Row | Molecule | Effect or point of inhibition
45 | CCCCCCCCCCCCCC(=O)OCC/C(SS/C(CCOC(=O)CCCCCCCCCCCCC)=C(\C)N(C=O)Cc1cnc(C)nc1N)=C(/C)N(C=O)Cc1cnc(C)nc1N | Nuclear translocation
46 | Oc1ccc(O)cc1 [Hydroquinone (HQ)] | DNA binding
47 | N[C@@H](CCC(=O)N[C@@H](CSN=O)C(=O)NCC(=O)O)C(=O)O [Nitrosoglutathione] | DNA binding
48 | C=C(C)[C@@H]1CC[C@]2(C(=O)O[C@@H]3O[C@H](CO[C@@H]4O[C@H](CO)[C@@H](O[C@@H]5O[C@@H](C)[C@H](O)[C@@H](O)[C@H]5O)[C@H](O)[C@H]4O)[C@@H](O)[C@H](O)[C@H]3O)CC[C@]3(C)[C@H](C[C@H]4OC(=O)C[C@@H](O)[C@]5(C)[C@@H]4[C@@]3(C)CC[C@H]5C(=C)C)[C@@H]12 [Chiisanoside] | RelA Nuclear translocation
49 | C[S+]([O-])c1ccc(-c2nc(-c3ccc(F)cc3)c(-c3ccncc3)[nH]2)cc1 (centres unmarked) [SB203580 (p38 MAPK inhibitor)] | Transactivation
50 | mercury | DNA binding
